The values that follow come from ChEMBL document CHEMBL5308504, “Tm Shift (DSF) assay results for EUbOPEN Chemogenomics Library” (2023).

By ΔTm is commonly meant the shift of the melting midpoint relative to a reference.

The target in assay [1] is T1, Peregrin (Homo sapiens) (UniProt P55201).
T1 sequence (whole entry): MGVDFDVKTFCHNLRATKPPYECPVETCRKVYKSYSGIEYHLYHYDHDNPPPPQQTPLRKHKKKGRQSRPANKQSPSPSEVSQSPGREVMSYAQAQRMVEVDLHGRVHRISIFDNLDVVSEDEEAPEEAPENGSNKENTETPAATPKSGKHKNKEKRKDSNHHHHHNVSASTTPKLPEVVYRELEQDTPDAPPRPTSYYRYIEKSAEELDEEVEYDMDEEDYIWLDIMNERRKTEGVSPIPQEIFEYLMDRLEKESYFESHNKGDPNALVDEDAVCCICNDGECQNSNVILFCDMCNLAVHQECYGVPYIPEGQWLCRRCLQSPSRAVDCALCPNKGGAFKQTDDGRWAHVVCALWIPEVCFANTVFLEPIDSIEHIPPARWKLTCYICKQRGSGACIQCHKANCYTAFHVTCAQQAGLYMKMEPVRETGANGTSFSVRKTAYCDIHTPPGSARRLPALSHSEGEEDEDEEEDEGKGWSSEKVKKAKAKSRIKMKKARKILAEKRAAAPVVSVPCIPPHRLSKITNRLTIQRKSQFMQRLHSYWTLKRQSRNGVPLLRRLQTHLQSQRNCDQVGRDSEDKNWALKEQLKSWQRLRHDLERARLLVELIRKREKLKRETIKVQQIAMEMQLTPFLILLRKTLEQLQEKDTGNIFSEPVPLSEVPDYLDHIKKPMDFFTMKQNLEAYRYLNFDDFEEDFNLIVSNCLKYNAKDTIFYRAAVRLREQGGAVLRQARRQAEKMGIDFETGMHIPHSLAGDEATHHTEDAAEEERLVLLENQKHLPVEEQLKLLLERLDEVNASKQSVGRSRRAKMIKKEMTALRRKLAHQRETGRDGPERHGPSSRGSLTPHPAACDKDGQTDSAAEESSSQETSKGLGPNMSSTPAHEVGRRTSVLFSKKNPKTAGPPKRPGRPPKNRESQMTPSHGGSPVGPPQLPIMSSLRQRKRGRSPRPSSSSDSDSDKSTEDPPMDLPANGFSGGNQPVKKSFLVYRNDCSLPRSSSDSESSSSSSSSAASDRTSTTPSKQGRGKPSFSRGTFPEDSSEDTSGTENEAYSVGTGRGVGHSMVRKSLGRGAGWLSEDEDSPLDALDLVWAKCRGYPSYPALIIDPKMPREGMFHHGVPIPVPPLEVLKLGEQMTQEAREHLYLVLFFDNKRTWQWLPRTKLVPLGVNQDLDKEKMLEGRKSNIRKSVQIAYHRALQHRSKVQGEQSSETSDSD
The settings on record: Compound concentration 20.0 uM, Protein concentration 2.0 uM, Result type QC Liability.

The target in assay [2] is Fibroblast growth factor receptor 3 (Homo sapiens) (UniProt P22607). The conditions noted are these: Compound concentration 20.0 uM, Protein concentration 2.0 uM, Result type QC Liability.
Sequence of Fibroblast growth factor receptor 3 (Homo sapiens) (P22607 23-806 limits assumed): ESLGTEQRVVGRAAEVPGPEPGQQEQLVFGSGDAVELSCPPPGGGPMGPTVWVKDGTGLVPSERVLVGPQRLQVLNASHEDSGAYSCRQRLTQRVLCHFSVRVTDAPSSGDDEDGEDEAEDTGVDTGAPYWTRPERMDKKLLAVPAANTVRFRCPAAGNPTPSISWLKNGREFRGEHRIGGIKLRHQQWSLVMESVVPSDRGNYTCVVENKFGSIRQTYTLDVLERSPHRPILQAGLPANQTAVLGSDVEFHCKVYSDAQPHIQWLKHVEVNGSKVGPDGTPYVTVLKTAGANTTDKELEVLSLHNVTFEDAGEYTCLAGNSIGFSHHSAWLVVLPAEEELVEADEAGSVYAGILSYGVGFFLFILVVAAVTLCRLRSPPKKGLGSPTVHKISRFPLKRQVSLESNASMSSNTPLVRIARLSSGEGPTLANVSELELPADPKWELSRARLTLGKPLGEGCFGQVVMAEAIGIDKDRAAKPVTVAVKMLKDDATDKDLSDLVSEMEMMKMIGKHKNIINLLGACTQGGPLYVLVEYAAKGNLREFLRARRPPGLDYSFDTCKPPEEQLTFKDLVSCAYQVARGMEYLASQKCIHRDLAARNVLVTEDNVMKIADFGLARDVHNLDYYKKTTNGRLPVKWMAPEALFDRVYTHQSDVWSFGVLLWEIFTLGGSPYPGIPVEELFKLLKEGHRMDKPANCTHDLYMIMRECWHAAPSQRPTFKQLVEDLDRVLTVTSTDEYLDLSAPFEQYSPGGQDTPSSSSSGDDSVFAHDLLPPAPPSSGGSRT
Description: Thermal Shift Assay. Domain: start/stop: P449-E759

Values joined by “and” are separate entries in the source; they are usually repeats but may differ in a detail not shown here. Equal entries are not always repeated.

`CP(C)(=O)c1ccc(CNC(=O)C2CCN(S(=O)(=O)c3cc(Cl)cc(Cl)c3)CC2)cc1`: the values for the ΔTm in assay [1] and in assay [2] were -3.29 °C and 0.53 °C, respectively.

Take `CC(C)NC(=O)[C@H]1CCC[C@H]1Nc1nc(Nc2ccc(CN(C)C)cc2)ncc1Br`: the ΔTm in assay [1] is -1.84 °C; in assay [2], 7.35 °C.

Regarding `Cn1cc(-n2cnc3c(NCc4nc5cc(Cl)c(Cl)cc5[nH]4)nc(N4CCOCC4)nc32)cn1`, the ΔTm in assay [1] is -0.07 °C; in assay [2] it was 0.69 °C.

With `C[C@]12CC[C@@H]3c4ccc(O)cc4CC[C@H]3[C@@H]1C[C@H]1OC(=O)C[C@]12O`, the ΔTm in assay [1] was -1.41 °C; in assay [2], 0.36 °C.

As to `O=C1CN(c2ccccc2F)C(NCCN2CCOCC2)=C1c1nc2cc(Br)ccc2c(=O)[nH]1`, the figures for the ΔTm in assay [1] and in assay [2] were -2.29 °C and 0.53 °C, respectively.

Regarding `CCCS(=O)(=O)N[C@H]1C[C@@H](N(C)c2ncnc3[nH]ccc23)C1`, the ΔTm in assay [1] is -1.75 °C; in assay [2], 1.73 °C.

Regarding `Cc1nc2ccc(Cl)cc2c(-c2ccccc2)c1CC(=O)O`, the ΔTm was -3.32 °C in assay [1] and 0.68 °C in assay [2].

On to `COc1cc(-c2cncc(-c3cnn(C4CCNCC4)c3)c2)cc(OC)c1OC`, for which the values for the ΔTm in assay [1] and in assay [2] were -0.73 °C and 0.93 °C, respectively.

For the compound `O=C(NCCS(=O)(=O)c1ccc(C(F)(F)F)cn1)c1ccc(Cl)cc1`, the figures for the ΔTm in assay [1] and in assay [2] were -0.99 °C and 0.38 °C, respectively.

`O=C(O)c1cc(-c2ccccc2)ccc1O`: the results for the ΔTm in assay [1] and in assay [2] were -0.36 °C and 0.62 °C, respectively.

On to `COc1cc(-c2cn(C)c(=O)c3cnccc23)c(OC)cc1CN(C)C`, for which the ΔTm in assay [1] came out at 0.44 °C; in assay [2], 0.84 °C.

With `CNC(=O)c1cccc(-c2ccc3c(N4CCOC[C@@H]4C)nc(N4CCOC[C@@H]4C)nc3n2)c1`, the figures for the ΔTm in assay [1] and in assay [2] were -1.11 °C and 0.5 °C, respectively.

Take `CN(C)[C@H]1CCc2nc(NC(=O)c3cccc(Cn4cc(-c5ccc(C#N)cc5)cn4)c3)sc2C1`: the ΔTm in assay [1] was determined as 0.07 °C; in assay [2] it was 0.81 °C.

In the case of `Cc1nccn1-c1ccc(Sc2cccc(C3(C(N)=O)CCOCC3)c2)cc1`, the ΔTm in assay [1] is -1.72 °C; in assay [2], 0.44 °C.

`Cc1cc(S(=O)(=O)N2CC(C)(C)c3cc(-c4ccc(C(F)(F)F)cc4)ccc32)ccc1OCC(=O)O`: the ΔTm is -7.85 °C in assay [1] and 0.47 °C in assay [2].

On to `CN[C@@H](C)C(=O)N[C@H]1CN(C(=O)CC(C)C)CC[C@H]2CC[C@@H](C(=O)NC(c3ccccc3)c3ccccc3)N2C1=O`, for which the thermal shift (ΔTm) was -1.53 °C in assay [1] and 0.83 °C in assay [2].

For `Cc1cc(-c2ccnc(Nc3cnn(C)c3)n2)ccc1CNC(=O)N1CC(OC(C)C)C1`, the ΔTm was -1.39 °C in assay [1] and 2.34 °C in assay [2].

For the compound `COc1cccc(CNc2ccc(S(=O)(=O)Nc3nc4ccccc4s3)cc2)c1O`, the ΔTm in assay [1] was -0.69 °C; in assay [2] it was 1.44 °C.

On to `COc1ccc(CC[C@@H](OC(=O)[C@@H]2CCCCN2C(=O)[C@H](c2cc(OC)c(OC)c(OC)c2)C2CCCCC2)c2cccc(OCCN3CCOCC3)c2)cc1OC`, for which the ΔTm in assay [1] is -5.77 °C; in assay [2], -3.93 °C.

As for `CN[C@@H](C)C(=O)N[C@H](C(=O)N1CCC[C@H]1C(=O)N[C@H]1c2ccccc2C[C@H]1OCC#CC#CCO[C@@H]1Cc2ccccc2[C@@H]1NC(=O)[C@@H]1CCCN1C(=O)[C@@H](NC(=O)[C@H](C)NC)C1CCCCC1)C1CCCCC1`, the ΔTm in assay [1] was -2.65 °C; in assay [2], 1.42 °C.

In the case of `CCOC(=O)Nc1ccc2c(c1)N(C(=O)CN(CC)CC)c1ccccc1CC2`, the ΔTm was -1.21 °C in assay [1] and 0.66 °C in assay [2].

With `CN1CCC(C#N)(NC(=O)[C@@H](NC(=O)N2CCOCC2)C(C)(C)C)CC1`, the ΔTm in assay [1] is -2.33 °C; in assay [2], 0.67 °C.

Regarding `N#Cc1ccc(C#CC[C@@H](C#N)NC(=O)[C@@H]2CCCCN2)cc1F`, the ΔTm in assay [1] is -2.06 °C; in assay [2], 0.43 °C.

In the case of `COc1cc(C(=O)NCCOCCOCCOCC(=O)N[C@H](C(=O)N2C[C@@H](O)C[C@H]2C(=O)NCc2ccc(-c3scnc3C)cc2)C(C)(C)C)ccc1Nc1ncc(C(F)(F)F)c(Oc2cccc3c2C(=O)CC3)n1`, the ΔTm is 1.72 °C in assay [1] and 1.69 °C in assay [2].

Take `CN1C(=O)c2c(nn(Cc3ccc(-c4cccc(F)n4)cc3)c2Nc2ccccc2)N2C1=N[C@@H]1CCC[C@@H]12`: the ΔTm in assay [1] was -3.07 °C; in assay [2] it was -0.44 °C.

For the compound `O=C(NCCN1CCOCC1)c1ccc2nn(CCOc3ccc(Cl)cc3)cc2c1`, the values for the ΔTm in assay [1] and in assay [2] were -2.21 °C and 1.58 °C, respectively.

Take `COCCN(C)c1ccc(NC(=O)/C=C(\C)c2ccc3ccccc3c2)c(C(=O)O)c1`: the results for the ΔTm in assay [1] and in assay [2] were -1.83 °C and 1.15 °C, respectively.

For the compound `COc1cccc(Cn2cc(C(=O)Nc3ccc(C)c(S(=O)(=O)N4CCOCC4)c3)c(-c3ccc(C)cc3)n2)c1`, the ΔTm came to 4.54 °C in assay [1] and 3.17 °C in assay [2].

In the case of `COc1cc(OC)cc(-c2cc3cnc(N)nc3nc2NC(=O)NC(C)(C)C)c1`, the ΔTm was -0.52 °C and -0.82 °C in assay [1]; 5.05 °C and 9.51 °C in assay [2].

`Cn1cc(C(=O)O)c2ccc(N3CCC(OCc4c(-c5c(Cl)cccc5Cl)noc4C4CC4)CC3)cc21`: the ΔTm in assay [1] was -1.9 °C; in assay [2] it was 0.91 °C.

In the case of `Cc1nccc(COC(=O)N2C[C@@H]3[C@@H](CNC(=O)c4ccc5[nH]nnc5c4)[C@@H]3C2)n1`, the ΔTm in assay [1] is -2.37 °C; in assay [2], 0.43 °C.

For `Cn1nccc1-c1ccc(Sc2cccc(C3(C(N)=O)CCOCC3)c2)cc1`, the ΔTm was -2.35 °C in assay [1] and 0.47 °C in assay [2].

On to `COc1ccc(N(C(=O)Nc2c(C)cccc2C)c2cc(Nc3ccc(N4CCN(C)CC4)cc3)ncn2)c(OC)c1`, for which the ΔTm in assay [1] is -3.64 °C; in assay [2], 8.93 °C.

With `CC(C)(C)c1cnc(CSc2cnc(NC(=O)C3CCNCC3)s2)o1`, the ΔTm in assay [1] was -1.47 °C; in assay [2], 0.5 °C.

As for `Cc1nc2c(cc1F)c(-c1nnc3c(n1)NC(=O)C3(C)C)nn2Cc1cccc(F)c1F`, the ΔTm in assay [1] was -2.09 °C; in assay [2] it was 0.5 °C.

On to `Cc1nc2cccnc2n2c(-c3cc(C(C)(C)O)ncc3Cl)nnc12`, for which the ΔTm was -3.02 °C in assay [1] and 1.25 °C in assay [2].

Consider `Cc1nnc2n1-c1sc(CCC(=O)N3CCOCC3)cc1C(c1ccccc1Cl)=NC2`, for which the ΔTm is -2.21 °C in assay [1] and 1.44 °C in assay [2].

Consider `CC(C)(C)OC(=O)CN1C(=O)c2c(OCC(=O)O)cccc2Oc2ccc(C(F)(F)F)cc21`, for which the ΔTm is -3.16 °C in assay [1] and 0.75 °C in assay [2].

As for `CC(=O)Nc1c(F)cc(C(=O)N[C@H]2CC[C@H](O)CC2)cc1O[C@@H](C)c1ccccc1`, the results for the ΔTm in assay [1] and in assay [2] were -0.36 °C and 0.45 °C, respectively.

For `C[C@@H]1Cc2c([nH]c3ccccc23)[C@@H](c2c(F)cc(/C=C/C(=O)O)cc2F)N1CC(C)(C)F`, the values for the ΔTm in assay [1] and in assay [2] were -4.53 °C and 0.58 °C, respectively.

On to `CC1=C(C(=O)OCCO)[C@@H](c2ccc(C#N)cc2)NC(=O)N1c1cccc(C(F)(F)F)c1`, for which the results for the ΔTm in assay [1] and in assay [2] were -1.72 °C and 0.42 °C, respectively.

Turning to `COCCNC1CCC(Nc2cc(-c3csc(NCC4(C#N)CCOCC4)n3)c(Cl)cn2)CC1` (stereo not given), the ΔTm in assay [1] was determined as 0.03 °C; in assay [2], 0.74 °C.

As for `O=C1COc2cc(C(=O)N(Cc3ccc(C(=O)Nc4ccncn4)cc3)C3CC3)ccc2N1`, the ΔTm was -0.77 °C in assay [1] and 0.74 °C in assay [2].

Regarding `Cn1ncc(-c2nc(N[C@H]3CC[C@H](N)CC3)ncc2Cl)c1CC1CC1`, the thermal shift (ΔTm) in assay [1] was -1.56 °C; in assay [2] it was 1.76 °C.

`COCCOCn1c(S(C)(=O)=O)nc2c1c(=O)n(C)c(=O)n2C`: the figures for the ΔTm in assay [1] and in assay [2] were -2.72 °C and 0.45 °C, respectively.

In the case of `Cc1nc2ccccc2c(-c2ccc3c4c(ccnc24)CCO3)c1[C@H](OC(C)(C)C)C(=O)O`, the ΔTm was -2.17 °C in assay [1] and 0.36 °C in assay [2].

As to `Nc1ncc2c(n1)-c1c([nH]c3ccc(C4CC4)cc13)CCCC2`, the figures for the thermal shift (ΔTm) in assay [1] and in assay [2] were -1.74 °C and 0.81 °C, respectively.

On to `C[S+](C)[O-]`, for which the ΔTm in assay [1] was 0 °C (2×) and -0.4 °C; in assay [2] it was 0 °C (2×) and 0.62 °C.

As to `CC(=O)Oc1ccc2c(c1)[C@@]1(C)CCC[C@](C)(C(=O)OC(=O)[C@@]3(C)CCC[C@]4(C)c5cc(OC(C)=O)ccc5CC[C@@H]34)[C@@H]1CC2`, the results for the ΔTm in assay [1] and in assay [2] were -2.67 °C and 0.1 °C, respectively.

Regarding `C[C@@H]1CC(=O)N(C2CC2)N=C1c1ccc(NC(=O)N2Cc3ccncc3C2)cc1`, the ΔTm in assay [1] is -2.03 °C; in assay [2], 0.58 °C.
